Tests used:
[1] = system: hyperthermia induced by intramuscular injection of pyrogenal; assay: Preventive antipyretic activity, pyrogenal hyperthermia; format: in vivo, Wistar rats; conditions: 100 mg/kg p.o. 1 h before pyrogenal
Procedure: Experiments were conducted on 48 Wistar rats with body mass 165-182 g by intramuscular injection of pyrogenal (Gamalei State Research Institution, Moscow, Russia) in 100 μg dose (Shwarz G Y, Syubaev R D, Vedomosti NCEG lekarstvennyh sredstv MZ RF 2000; 1:44-50 (Rus). Test substances were given p.o. one hour before the pyrogenal injection. Rectal temperature was measured by electric thermometer TERMO before injection of pyrogenal (baseline) and for 3 hours after injection. The antipyretic activity was evaluated by the reduction of hyperthermic reaction 2 hours after injection of pyrogenal that correlated well with the published data (10) about the peak of reaction (Table 6). Ambient temperature was kept at 20-21° C.

carrageneen paw oedema = assay: Acute inflammatory oedema model (carrageneen test); format: in vivo, rats; conditions: 100 mg/kg p.o. 30 min after carrageneen; 4 h
Procedure: Experiments were conducted using carrageneen test (Winter C et al, Proc Soc Exptl Biol and Med 1962; III(3):544-547. Wei Jia et al, Journal of Ethnopharmacology 2003(89):139-141; Sutharson Lingadurai et al, African Journal of traditional, complementary and alternative medicines, 2007, 4(4):411-416) on 42 rats with body mass of 226-274 g. Single injection of carrageneen (Sigma) solution (1%) in saline (0.1 ml) was introduced in rat hind leg paw. Test substances were introduced p.o. (through catheter into rat stomach) 30 min. after the injection of carrageneen. The volume of paw was measured by oncometer at baseline and 4 hours after the injection of carrageneen.
The percentage of prevention (inhibition of oedema) was calculated according to formula: P(%)=(1−Vo/Vc)×100, where P—Prevention in % (inhibition of oedema) Vo—difference between the paw volume at baseline and at experimental conditions; Vc—analogical difference in control group.

[2] = system: adjuvant arthritis induced by Freund's adjuvant; assay: Adjuvant arthritis: paw volume and ankle joint; format: in vivo, Wistar rats; conditions: 100 mg/kg daily p.o.
From the text: Our experiments were scheduled to test the influence of MASA on the progress of adjuvant arthritis in comparison with MD and ASA. […] Each standard cage housed 7 rats with unlimited access to drinking water and granulated standard feed. […] All efforts were made to minimize animal suffering and to reduce the number of animals used. A modified standard procedure for inducting and evaluating the progress of chronic adjuvant arthritis was used (Bellavite P, Ortolani R, Conforti A, Immunology and Homeopathy. 3. Experimental Studies on Animal Models, Advance Access Publication 2.05, 2006, 171-186). […] The solutions of test substances were prepared ex tempore. […] Test solutions were introduced to animal p.o. by catheter into the stomach. […] The effects of test substances were evaluated using the following criteria: The oedema, i.e. the volume of hind paw was measured by oncometer. The percentage of prevention (inhibition of oedema) was calculated according to formula: P(%)=(Vc−Vt)/Vc×100, where Vc—paw volume in control group Vt—paw volume in test group P—Prevention in % (inhibition of oedema).

platelet aggregation = assay: Platelet aggregation in vitro, whole blood impedance aggregometry (Multiplate); format: cell-based, healthy donor; conditions: 10^−4
Procedure: Platelet aggregation was studied using whole blood impedance aggregometry on Multiplate (Multiple Platelet Function Analyzer, Dynabyte Medical, Germany) (Toth O et al, Thromb Haemost 2006; 96:781-788. […] Blood samples for in vitro experiment were collected from healthy donor B. […] In the ex vivo experiment blood was collected into plastic tubes covered with hirudin (Dynabyte Medical, Germany) from narcotized rats that were treated for 3 previous days with test substances p.o. The measurements were performed according to modified Dynabyte Medical protocol. […] After 5 min incubation and stirring at 37° C., measurements were initiated by adding of the appropriate agonist solution (sourced from Dynabyte Medical, Germany): 1) adenosine diphosphate (ADP)-ADP-Test. ADP stimulates platelet activation by the ADP receptors (P2Y 12 and other). […] 3) ADP HS test (prostaglandin E1 in combination with ADP). […] Aggregation curves were recorded for 6 min. and analyzed using Dynabyte Medical software. We calculated the following parameters of platelet aggregation: […] It is affected by the total height of the aggregation curve as well as by its slope and is best suited to express the overall platelet activity.

rat ear skin temperature [3] = assay: Ear skin temperature rise caused by NA, s.c. administration; format: in vivo, Wistar rats
Procedure: (§1) Male Wistar rats (280-330 g) were used. Animals were held in groups of 6 in climatized rooms at 22±1° C., relative humidity 60±5%, and 12/12-hour light/dark cycle with free access to drinking water and feed (R3—Lactamin AB, Sweden). For registration of changes in skin temperature of intact rats contactless temperature recording method was used (Papaliodis D et al, Br J Pharmacol 2008; 153:1382-1387). Temperature measurements were performed with a hand-held infrared thermometer (Model Proscan 510, TFA-Dostman). Animals were habituated to handling and to the infrared probe for 3 days before use. Temperature readings from the dorsal side of each ear were recorded without anaesthesia at beginning and during experiment. The ear temperature was measured every 5 min. for a period of up to 60 min. The animals were returned to their cages between measurements. NA, MD and MASA were dissolved in saline and pH was corrected immediately before usage. LA (MK 0524, Cayman Chemicals) was first dissolved in DMSO and then freshly diluted with 0.9% NaCl, on each day of the experiment. The rate of NA and LA combination was based on Summary of Product Characteristics for Tredaptive™ (nicotinic acid/laropiprant) 1000 mg/20 mg modified-release tablets.
The influence of LA, MD or MASA alone on skin temperature was checked. Each investigated compound was introduced s.c. simultaneously with NA as LA+NA [0] or 30 min in advance to NA as LA+NA [30].

rat ear skin temperature [4] = assay: Ear skin temperature rise caused by NA, p.o. administration; format: in vivo, Wistar rats; conditions: for Max incr. %: NA alone = 100
Procedure: as §1
9.2.3. Investigation of the Effect of MASA/NA and MD/NA Combination on Skin Temperature at Simultaneous or 45 Min Advance p.o. Administration

C[N+](C)(C)NCCC(=O)[O-].O.O [MD, 3-(Trimethylammonioamino)propanoate dihydrate]
Rectal temperature 120 minutes after injection [1]: 36.2 ± 0.16 °C
Index, % (inhibition of oedema) (carrageneen paw oedema): 43%
Volume of paw after injection of carrageneen (carrageneen paw oedema): 2.13 ± 0.12 mL
Dimensions of ankle joint on Day 14 [2]: 7.0 ± 0.13 mm
Dimensions of ankle joint on Day 28 [2]: 7.0 ± 0.13 mm
Paw volume on Day 14 [2]: 2.60 ± 0.21 mL
Paw volume on Day 28 [2]: 1.93 ± 0.13 mL
Prevention %, paw volume Day 14 ([2]; vs AdA): −7%
Prevention %, paw volume Day 28 ([2]; vs AdA): 13%
AUC (platelet aggregation; AA induced): 1050 ± 37.6^& AU*min
Amax (platelet aggregation; AA induced): 179.5 ± 7.3^& AU
AUC (platelet aggregation; ADP induced): 869 ± 36.3 AU*min
Amax (platelet aggregation; ADP induced): 153.2 ± 6.1 AU
AUC (platelet aggregation; PGE1 + ADP induced): 587 ± 37.4^2&& AU*min
Amax (platelet aggregation; PGE1 + ADP induced): 101.4 ± 2.2^2&& AU
Maximum temperature (rat ear skin temperature [3]; 45 mg/kg s.c. alone): 29.6 ± 0.31^$$$ ° C.
Temp. 15 min (rat ear skin temperature [4]; MD 100 mg/kg p.o. alone): 30.1 ± 0.39^$$ ° C.
Temp. 30 min (rat ear skin temperature [4]; MD 100 mg/kg p.o. alone): 29.8 ± 0.38^$$$ ° C.
Temp. 45 min (rat ear skin temperature [4]; MD 100 mg/kg p.o. alone): 30.0 ± 0.34^$$ ° C.
Max incr. % (rat ear skin temperature [4]; MD 100 mg/kg p.o. alone): 6%

O=C(O)c1cccnc1 [NA, nicotinic acid]
AUC (platelet aggregation; AA induced): 1010 ± 41.7 AU*min
Amax (platelet aggregation; AA induced): 161.1 ± 9.4 AU
AUC (platelet aggregation; ADP induced): 859 ± 62.5 AU*min
Amax (platelet aggregation; ADP induced): 148.0 ± 5.2^1 AU
AUC (platelet aggregation; PGE1 + ADP induced): 862 ± 51.9 AU*min
Amax (platelet aggregation; PGE1 + ADP induced): 146.7 ± 8.6 AU
Maximum temperature (rat ear skin temperature [3]; NA 15 mg/kg s.c.): 32.2 ± 0.42 °C
maximal temperature increase from baseline (rat ear skin temperature [3]; NA 15 mg/kg s.c., at 10 min): 2.32±0.37 °C
maximal temperature increase in comparison with Solvent group (rat ear skin temperature [3]; NA 15 mg/kg s.c., at 10 min): 2.57±0.43
Increase, % (rat ear skin temperature [3]; NA 15 mg/kg s.c., effect of NA = 100): 100%
Temp. 15 min (rat ear skin temperature [4]; NA 40 mg/kg p.o.): 32.3 ± 0.46 °C
Temp. 30 min (rat ear skin temperature [4]; NA 40 mg/kg p.o.): 33.1 ± 0.41 °C
Temp. 45 min (rat ear skin temperature [4]; NA 40 mg/kg p.o.): 32.4 ± 0.48 °C
Max incr. % (rat ear skin temperature [4]; NA 40 mg/kg p.o.): 100%

Source: patent publication US8889902B2, “Acetylsalicylic acid salts” (priority 2009, dated 2014)
